Experimental data taken from patent publication US12065442B2, “Tropomyosin receptor kinase (TRK) degradation compounds and methods of use” (Cullgen (Shanghai), Inc., priority 2018, dated 2024).

test system: KM12 cells; assay: Cell viability assay (CellTiter-Glo) in KM12 cells; assay type: cell-based; details: Homo sapiens, 72 h; Table 2; KM12 cell viability, CellTiter-Glo, 3 days; read-out: IC50

Going from `O=C1CCC(N2C(=O)c3cccc(NCCCCC(=O)N4CCN(c5ccc(C(=O)Nc6n[nH]c7ccc(Cc8cc(F)cc(F)c8)cc67)c(NC6CCOCC6)c5)CC4)c3C2=O)C(=O)N1` (centres unmarked) [CPD-050, N-(5-(3,5-difluorobenzyl)-1H-indazol-3-yl)-4-(4-(5-((2-(2,6-dioxopiperidin-3-yl)-1,3-dioxoisoindolin-4-yl)amino)pentanoyl)piperazin-1-yl)-2-((tetrahydro-2H-pyran-4-yl)amino)benzamide] to `O=C1CCC(N2C(=O)c3cccc(NCC(=O)N4CCN(c5ccc(C(=O)Nc6n[nH]c7ccc(Cc8cc(F)cc(F)c8)cc67)c(NC6CCOCC6)c5)CC4)c3C2=O)C(=O)N1` (centres unmarked) [CPD-055, N-(5-(3,5-difluorobenzyl)-1H-indazol-3-yl)-4-(4-((2-(2,6-dioxopiperidin-3-yl)-1,3-dioxoisoindolin-4-yl)glycyl)piperazin-1-yl)-2-((tetrahydro-2H-pyran-4-yl)amino)benzamide], the IC50 falls from 28 nM to 13 nM (2.2-fold). The second is the more potent here.

Compared with `Cc1ncsc1-c1ccc(CNC(=O)[C@@H]2C[C@@H](O)CN2C(=O)[C@@H](NC(=O)CCCCCC(=O)N2CCN(c3ccc(C(=O)Nc4n[nH]c5ccc(Cc6cc(F)cc(F)c6)cc45)c(NC4CCOCC4)c3)CC2)C(C)(C)C)cc1` [CPD-047, (2S,4R)-1-((S)-2-(7-(4-(4-((5-(3,5-difluorobenzyl)-1H-indazol-3-yl)carbamoyl)-3-((tetrahydro-2H-pyran-4-yl)amino)phenyl)piperazin-1-yl)-7-oxoheptanamido)-3,3-dimethylbutanoyl)-4-hydroxy-N-(4-(4-methylthiazol-5-yl)benzyl)pyrrolidine-2-carboxamide], `Cc1ncsc1-c1ccc(CNC(=O)[C@@H]2C[C@@H](O)CN2C(=O)[C@@H](NC(=O)CCOCCOCCOCCOCCC(=O)N2CCN(c3ccc(C(=O)Nc4n[nH]c5ccc(Cc6cc(F)cc(F)c6)cc45)c(NC4CCOCC4)c3)CC2)C(C)(C)C)cc1` [CPD-041, (2S,4R)-1-((S)-2-(tert-butyl)-19-(4-(4-((5-(3,5-Difluorobenzyl)-1H-indazol-3-yl)carbamoyl)-3-((tetrahydro-2H-pyran-4-yl)amino)phenyl)piperazin-1-yl)-4,19-dioxo-7,10,13,16-tetraoxa-3-azanonadecanoyl)-4-hydroxy-N-(4-(4-methylthiazol-5-yl)benzyl)pyrrolidine-2-carboxamide] is 4.3-fold higher in IC50: 94 nM for the first, 400 nM for the second. The first is the more potent here.

Work on `Cc1ncsc1-c1ccc(CNC(=O)[C@@H]2C[C@@H](O)CN2C(=O)[C@@H](NC(=O)CCOCCOCCOCCOCCOCCC(=O)N2CCN(c3ccc(C(=O)Nc4n[nH]c5ccc(Cc6cc(F)cc(F)c6)cc45)c(NC4CCOCC4)c3)CC2)C(C)(C)C)cc1` [CPD-043, (2S,4R)-1-((S)-2-(tert-butyl)-22-(4-(4-((5-(3,5-Difluorobenzyl)-1H-indazol-3-yl)carbamoyl)-3-((tetrahydro-2H-pyran-4-yl)amino)phenyl)piperazin-1-yl)-4,22-dioxo-7,10,13,16,19-pentaoxa-3-azadocosanoyl)-4-hydroxy-N-(4-(4-methylthiazol-5-yl)benzyl)pyrrolidine-2-carboxamide] yielded an IC50 of over 1000 nM.

same assay, conditions: Homo sapiens, 72 h; Table 3; KM12 cell viability, CellTiter-Glo, 3 days; read-out: IC50

Going from `O=C1CCC(N2C(=O)c3ccc(NCC4CCN(c5cccc(-c6cnc7ccc(N8CCC[C@@H]8c8cccc(F)c8)nn67)n5)CC4)cc3C2=O)C(=O)N1` (stereo partly drawn) [TR-178, 2-(2,6-Dioxopiperidin-3-yl)-5-(((1-(6-(6-((R)-2-(3-fluorophenyl)pyrrolidin-1-yl)imidazo[1,2-b]pyridazin-3-yl)pyridin-2-yl)piperidin-4-yl)methyl)amino)isoindoline-1,3-dione] to `O=C1CCC(N2C(=O)c3ccc(NCCOCCC(=O)N4CCN(c5cccc(-c6cnc7ccc(N8CCC[C@@H]8c8cccc(F)c8)nn67)n5)CC4)cc3C2=O)C(=O)N1` (stereo partly drawn) [TR-119, 2-(2,6-Dioxopiperidin-3-yl)-5-((2-(3-(4-(6-(6-((R)-2-(3-fluorophenyl)pyrrolidin-1-yl)imidazo[1,2-b]pyridazin-3-yl)pyridin-2-yl)piperazin-1-yl)-3-oxopropoxy)ethyl)amino)isoindoline-1,3-dione], the IC50 falls from 67.7 nM to 1.6 nM (42-fold). The second is the more potent here.

First: O=C(CN1CCN(c2cccc(-c3cnc4ccc(N5CCC[C@@H]5c5cccc(F)c5)nn34)n2)CC1)NCCOCCOCCOCCOCCOCCNc1cccc2c1C(=O)N(C1CCC(=O)NC1=O)C2=O (stereo partly drawn) [TR-104, N-(17-((2-(2,6-dioxopiperidin-3-yl)-1,3-dioxoisoindolin-4-yl)amino)-3,6,9,12,15-pentaoxaheptadecyl)-2-(4-(6-(6-((R)-2-(3-fluorophenyl)pyrrolidin-1-yl)imidazo[1,2-b]pyridazin-3-yl)pyridin-2-yl)piperazin-1-yl)acetamide]
Second: O=C(CN1CCN(c2cccc(-c3cnc4ccc(N5CCC[C@@H]5c5cccc(F)c5)nn34)n2)CC1)NCCCCCNc1cccc2c1C(=O)N(C1CCC(=O)NC1=O)C2=O (stereo partly drawn) [TR-103, N-(5-((2-(2,6-dioxopiperidin-3-yl)-1,3-dioxoisoindolin-4-yl)amino)pentyl)-2-(4-(6-(6-((R)-2-(3-fluorophenyl)pyrrolidin-1-yl)imidazo[1,2-b]pyridazin-3-yl)pyridin-2-yl)piperazin-1-yl)acetamide]
The IC50 of the first is 1.7-fold lower: 8.1 nM for the first, 13.5 nM for the second. The first is the more potent here.

Going from `O=C1CCC(N2Cc3ccc(OCCN4CCN(c5cccc(-c6cnc7ccc(N8CCC[C@@H]8c8cccc(F)c8)nn67)n5)CC4)cc3C2=O)C(=O)N1` (stereo partly drawn) [TR-201, 3-(6-(2-(4-(6-(6-((R)-2-(3-fluorophenyl)pyrrolidin-1-yl)imidazo[1,2-b]pyridazin-3-yl)pyridin-2-yl)piperazin-1-yl)ethoxy)-1-oxoisoindolin-2-yl)piperidine-2,6-dione] to `O=C1CCC(N2C(=O)c3ccc(C#CCN4CCN(c5cccc(-c6cnc7ccc(N8CCC[C@@H]8c8cccc(F)c8)nn67)n5)CC4)cc3C2=O)C(=O)N1` (stereo partly drawn) [TR-183, 2-(2,6-Dioxopiperidin-3-yl)-5-(3-(4-(6-(6-((R)-2-(3-fluorophenyl)pyrrolidin-1-yl)imidazo[1,2-b]pyridazin-3-yl)pyridin-2-yl)piperazin-1-yl)prop-1-yn-1-yl)isoindoline-1,3-dione], the IC50 falls from over 500 nM to 129 nM. The second is the more potent here.

`O=C1CCC(N2C(=O)c3ccc(/C=C/C(=O)N4CCN(c5cccc(-c6cnc7ccc(N8CCC[C@@H]8c8cccc(F)c8)nn67)n5)CC4)cc3C2=O)C(=O)N1` (stereo partly drawn) [TR-195, 2-(2,6-Dioxopiperidin-3-yl)-5-((E)-3-(4-(6-(6-((R)-2-(3-fluorophenyl)pyrrolidin-1-yl)imidazo[1,2-b]pyridazin-3-yl)pyridin-2-yl)piperazin-1-yl)-3-oxoprop-1-en-1-yl)isoindoline-1,3-dione] and `O=C1CCC(N2C(=O)c3ccc(N4CCC(N5CCN(c6cccc(-c7cnc8ccc(N9CCC[C@@H]9c9cccc(F)c9)nn78)n6)CC5)CC4)cc3C2=O)C(=O)N1` (stereo partly drawn) [TR-182, 2-(2,6-Dioxopiperidin-3-yl)-5-(4-(4-(6-(6-((R)-2-(3-fluorophenyl)pyrrolidin-1-yl)imidazo[1,2-b]pyridazin-3-yl)pyridin-2-yl)piperazin-1-yl)piperidin-1-yl)isoindoline-1,3-dione] are within 1.5-fold of each other in IC50: 23.6 nM for the first, 16 nM for the second.

First: O=C1CCC(N2C(=O)c3ccc(NCCCC(=O)N4CCN(c5ccc(C(=O)Nc6n[nH]c7ccc(Cc8cc(F)cc(F)c8)cc67)c(NC6CCOCC6)c5)CC4)cc3C2=O)C(=O)N1 (centres unmarked) [TR-169, N-(5-(3,5-Difluorobenzyl)-1H-indazol-3-yl)-4-(4-(4-((2-(2,6-dioxopiperidin-3-yl)-1,3-dioxoisoindolin-5-yl)amino)butanoyl)piperazin-1-yl)-2-((tetrahydro-2H-pyran-4-yl)amino)benzamide]
Second: O=C(CN1CCN(c2ccc(C(=O)Nc3n[nH]c4ccc(Cc5cc(F)cc(F)c5)cc34)c(NC3CCOCC3)c2)CC1)NCCCCCNc1cccc2c1C(=O)N(C1CCC(=O)NC1=O)C2=O (centres unmarked) [TR-149, N-(5-(3,5-Difluorobenzyl)-1H-indazol-3-yl)-4-(4-(2-((5-((2-(2,6-dioxopiperidin-3-yl)-1,3-dioxoisoindolin-4-yl)amino)pentyl)amino)-2-oxoethyl)piperazin-1-yl)-2-((tetrahydro-2H-pyran-4-yl)amino)benzamide]
The IC50 of the first is 2.9-fold lower: 1.6 nM for the first, 4.6 nM for the second.

same assay, conditions: Homo sapiens, 72 h; Table 4; KM12 cell viability, CellTiter-Glo, 3 days; read-out: IC50

Compared with `O=C1CCC(N2C(=O)c3ccc(N4CC(CN5CCC(N6CCC=C(c7cnc8ccc(N9CCC[C@@H]9c9cccc(F)c9)nn78)C6)CC5)C4)cc3C2=O)C(=O)N1` (stereo partly drawn) [TR-230, 2-(2,6-Dioxopiperidin-3-yl)-5-(3-((4-(5-(6-((R)-2-(3-fluorophenyl)pyrrolidin-1-yl)imidazo[1,2-b]pyridazin-3-yl)-3,6-dihydropyridin-1(2H)-yl)piperidin-1-yl)methyl)azetidin-1-yl)isoindoline-1,3-dione], `O=C1CCC(N2C(=O)c3ccc(N4CC(C(=O)N5CCN(c6cccc(-c7cnc8ccc(N9CCC[C@@H]9c9cccc(F)c9)nn78)n6)CC5)C4)cc3C2=O)C(=O)N1` (stereo partly drawn) [TR-211, 2-(2,6-Dioxopiperidin-3-yl)-5-(3-(4-(6-(6-((R)-2-(3-fluorophenyl)pyrrolidin-1-yl)imidazo[1,2-b]pyridazin-3-yl)pyridin-2-yl)piperazine-1-carbonyl)azetidin-1-yl)isoindoline-1,3-dione] is lower in IC50: over 500 nM for the first, 2 nM for the second. The second is the more potent here.

First: O=C1CCC(N2Cc3cc(C#CC4CN(c5cccc(-c6cnc7ccc(N8CCC[C@@H]8c8cccc(F)c8)nn67)n5)C4)ccc3C2=O)C(=O)N1 (stereo partly drawn) [TR-219, 3-(5-((1-(6-(6-((R)-2-(3-Fluorophenyl)pyrrolidin-1-yl)imidazo[1,2-b]pyridazin-3-yl)pyridin-2-yl)azetidin-3-yl)ethynyl)-1-oxoisoindolin-2-yl)piperidine-2,6-dione]
Second: O=C1CCC(N2Cc3cc(NCC4CN(c5cccc(-c6cnc7ccc(N8CCC[C@@H]8c8cccc(F)c8)nn67)n5)C4)ccc3C2=O)C(=O)N1 (stereo partly drawn) [TR-210, 3-(5-(((1-(6-(6-((R)-2-(3-Fluorophenyl)pyrrolidin-1-yl)imidazo[1,2-b]pyridazin-3-yl)pyridin-2-yl)azetidin-3-yl)methyl)amino)-1-oxoisoindolin-2-yl)piperidine-2,6-dione]
The IC50 of the first is 3.2-fold higher: 44.9 nM for the first, 14 nM for the second.

Work on `O=C1CCC(N2C(=O)c3ccc(CN4CC(N5CCN(c6cccc(-c7cnc8ccc(N9CCC[C@@H]9c9cccc(F)c9)nn78)n6)CC5)C4)cc3C2=O)C(=O)N1` (stereo partly drawn) [TR-237, 2-(2,6-dioxopiperidin-3-yl)-5-((3-(4-(6-(6-((R)-2-(3-fluorophenyl)pyrrolidin-1-yl)imidazo[1,2-b]pyridazin-3-yl)pyridin-2-yl)piperazin-1-yl)azetidin-1-yl)methyl)isoindoline-1,3-dione] yielded an IC50 of 138 nM.
